Where a name gives a salt, the structure may show the parent alone.
Target: T1, human β-Secretase (Homo sapiens, UniProt P56817)
T1 construct: soluble part of the human β-Secretase (AA 1-AA 460); Fc domain of IgG1 (C); made in house
Assay: TR-FRET assay
Type: biochemical
Conditions: sBACE-Fc, substrate (Europium)CEVNLDAEFK(Qsy7) 100 nM, pH4.5, unit not in table
Method: The β-secretase enzyme used in the TR-FRET is prepared as follows:
The cDNA for the soluble part of the human β-Secretase (AA 1-AA 460) was cloned using the ASP2-Fc10-1-IRES-GFP-neoK mammalian expression vector. The gene was fused to the Fc domain of IgG1 (affinity tag) and stably cloned into HEK 293 cells.
The enzyme (truncated form) was diluted to 6 μg/mL (stock 1.3 mg/mL) and the substrate (Europium)CEVNLDAEFK(Qsy7) to 200 nM (stock 120 μM) in reaction buffer (NaAcetate, chaps, triton x-100, EDTA pH4.5). The robotic systems Biomek FX and Velocity 11 were used for all liquid handling and the enzyme and substrate solutions were kept on ice until they were placed in the robotic system. Enzyme (9 μl) was added to the plate then 1 μl of compound in dimethylsulphoxide was added, mixed and pre-incubated for 10 minutes. Substrate (10 μl) was then added, mixed and the reaction proceeded for 15 minutes at room temperature. The reaction was stopped with the addition of Stop solution (7 μl, NaAcetate, pH 9). The fluorescence of the product was measured on a Victor II plate reader with an excitation wavelength of 340 nm and an emission wavelength of 615 nm. The assay was performed in a Costar 384 well round bottom, low volume, non-binding surface plate (Corning #3676). […] The dimethylsulphoxide control, instead of test compound, defined the 100% activity level and 0% activity was defined by wells lacking enzyme (replaced with reaction buffer).

T1 sequence (P56817 22-460): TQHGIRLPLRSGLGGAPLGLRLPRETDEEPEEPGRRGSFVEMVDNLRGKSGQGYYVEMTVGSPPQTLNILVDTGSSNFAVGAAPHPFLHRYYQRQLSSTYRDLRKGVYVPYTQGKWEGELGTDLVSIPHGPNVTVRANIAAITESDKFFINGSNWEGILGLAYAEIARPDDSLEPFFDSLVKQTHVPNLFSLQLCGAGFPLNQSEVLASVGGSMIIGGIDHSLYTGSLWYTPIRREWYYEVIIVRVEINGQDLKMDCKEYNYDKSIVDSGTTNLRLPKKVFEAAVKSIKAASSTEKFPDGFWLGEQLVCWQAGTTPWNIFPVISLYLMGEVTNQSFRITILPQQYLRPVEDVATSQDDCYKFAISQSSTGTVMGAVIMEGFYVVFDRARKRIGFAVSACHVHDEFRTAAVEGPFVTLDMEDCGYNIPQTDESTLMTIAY

IC50 [nM] | SMILES
909 | Cc1cc(C2(c3cccc(OCCCF)c3)N=C(N)c3ncccc32)cc(OC(F)F)n1 (stereo not drawn) [Example 19, 5-(2-(Difluoromethoxy)-6-methylpyridin-4-yl)-5-(3-(3-fluoropropoxy)phenyl)-5H-pyrrolo[3,4-b]pyridin-7-amine]
337 | COc1c(C)cc(C2(c3cccc(OCCC(F)F)c3)N=C(N)c3ncccc32)nc1C (stereo not drawn) [Example 22, 5-(3-(3,3-Difluoropropoxy)phenyl)-5-(5-methoxy-4,6-dimethylpyridin-2-yl)-5H-pyrrolo[3,4-b]pyridin-7-amine acetic acid salt]
2700 | Cc1cc(C2(c3cccc(OCCCF)c3)N=C(N)c3ncccc32)ccn1 (stereo not drawn) [Example 13, 5-(3-(3-Fluoropropoxy)phenyl)-5-(2-methylpyridin-4-yl)-5H-pyrrolo[3,4-b]pyridin-7-amine]
1200 | NC1=NC(c2cccc(OCC3CCC3)c2)(c2ccnc(C(F)(F)F)c2)c2cccnc21 (stereo not drawn) [Example 7, 5-(3-(Cyclobutylmethoxy)phenyl)-5-(2-(trifluoromethyl)pyridin-4-yl)-5H-pyrrolo[3,4-b]pyridin-7-amine]
2620 | NC1=NC(c2cccc(OCCCF)c2)(c2ccnc(OC(F)F)c2)c2cccnc21 (stereo not drawn) [Example 23, 5-(2-(Difluoromethoxy)pyridin-4-yl)-5-(3-(3-fluoropropoxy)phenyl)-5H-pyrrolo[3,4-b]pyridin-7-amine 1.67 acetic acid]
2400 | NC1=NC(c2ccncc2)(c2cccc(OCCCF)c2)c2cccnc21 (stereo not drawn) [Example 10, 5-(3-(3-Fluoropropoxy)phenyl)-5-(pyridin-4-yl)-5H-pyrrolo[3,4-b]pyridin-7-amine]
2700 | NC1=NC(c2ccncc2)(c2cccc(OCC3CCC3)c2)c2cccnc21 (stereo not drawn) [Example 4, 5-(3-(Cyclobutylmethoxy)phenyl)-5-(pyridin-4-yl)-5H-pyrrolo[3,4-b]pyridin-7-amine]
26000 | COc1cccc(C2(c3ccncc3)N=C(N)c3ncccc32)c1 (stereo not drawn) [Example 9i, 5-(3-Methoxyphenyl)-5-(pyridin-4-yl)-5H-pyrrolo[3,4-b]pyridin-7-amine]
779 | COc1ccc(C2(c3cccc(OCCCF)c3)N=C(N)c3ncccc32)cc1Cl (stereo not drawn) [Example 20, 5-(3-Chloro-4-methoxyphenyl)-5-(3-(3-fluoropropoxy)phenyl)-5H-pyrrolo[3,4-b]pyridin-7-amine]
1500 | NC1=NC(c2ccncc2)(c2cccc(OCC3CCCC3)c2)c2cccnc21 (stereo not drawn) [Example 3, 5-(3-(Cyclopentylmethoxy)phenyl)-5-(pyridin-4-yl)-5H-pyrrolo[3,4-b]pyridin-7-amine]
1700 | CC(C)CCOc1cccc(C2(c3ccncc3)N=C(N)c3ncccc32)c1 (stereo not drawn) [Example 2, 5-(3-(Isopentyloxy)phenyl)-5-(pyridin-4-yl)-5H-pyrrolo[3,4-b]pyridin-7-amine]
81 | COc1c(C)cc(C2(c3cccc(OCCCF)c3)N=C(N)c3ncccc32)cc1C (stereo not drawn) [Example 11, 5-(3-(3-Fluoropropoxy)phenyl)-5-(4-methoxy-3,5-dimethylphenyl)-5H-pyrrolo[3,4-b]pyridin-7-amine]
2700 | COc1cc(C2(c3cccc(OCCCF)c3)N=C(N)c3ncccc32)ccn1 (stereo not drawn) [Example 12, 5-(3-(3-Fluoropropoxy)phenyl)-5-(2-methoxypyridin-4-yl)-5H-pyrrolo[3,4-b]pyridin-7-amine]
960 | COc1ccc(C2(c3cccc(OCCCF)c3)N=C(N)c3ncccc32)cc1C(F)(F)F (stereo not drawn) [Example 14, 5-(3-(3-Fluoropropoxy)phenyl)-5-(4-methoxy-3-(trifluoromethyl)phenyl)-5H-pyrrolo[3,4-b]pyridin-7-amine]
3000 | NC1=NC(c2ccncc2)(c2cccc(OC3CCCC3)c2)c2cccnc21 (stereo not drawn) [Example 8, 5-(3-(Cyclopentyloxy)phenyl)-5-(pyridin-4-yl)-5H-pyrrolo[3,4-b]pyridin-7-amine]
2300 | NC1=NC(c2ccncc2)(c2cccc(OCC3CC3(F)F)c2)c2cccnc21 (stereo not drawn) [Example 5, 5-(3-((2,2-Difluorocyclopropyl)methoxy)phenyl)-5-(pyridin-4-yl)-5H-pyrrolo[3,4-b]pyridin-7-amine]
1150 | NC1=NC(c2cccc(OCCC(F)F)c2)(c2ccnc(C(F)(F)F)c2)c2cccnc21 (stereo not drawn) [Example 21, 5-(3-(3,3-Difluoropropoxy)phenyl)-5-(2-(trifluoromethyl)pyridin-4-yl)-5H-pyrrolo[3,4-b]pyridin-7-amine trifluoroacetic acid salt]
1500 | NC1=NC(c2cccc(OCCCF)c2)(c2ccnc(C(F)(F)F)c2)c2cccnc21 (stereo not drawn) [Example 6, 5-(3-(3-Fluoropropoxy)phenyl)-5-(2-(trifluoromethyl)pyridin-4-yl)-5H-pyrrolo[3,4-b]pyridin-7-amine]

SMILES | IC50 [nM]
COc1ncc(C2(c3cccc(OCC(C)C)c3)N=C(N)c3ncccc32)cc1C (stereo not drawn) [Example 16, 5-(3-Isobutoxyphenyl)-5-(6-methoxy-5-methylpyridin-3-yl)-5H-pyrrolo[3,4-b]pyridin-7-amine acetate] | 3100
Cc1cc(C2(c3cccc(OCC(C)C)c3)N=C(N)c3ncccc32)cc(C)n1 (stereo not drawn) [Example 15, 5-(2,6-Dimethylpyridin-4-yl)-5-(3-isobutoxyphenyl)-5H-pyrrolo[3,4-b]pyridin-7-amine acetate] | 3800
NC1=NC(c2ccncc2)(c2cccc(OC3CCC3)c2)c2cccnc21 (stereo not drawn) [Example 9, 5-(3-Cyclobutoxyphenyl)-5-(pyridin-4-yl)-5H-pyrrolo[3,4-b]pyridin-7-amine] | 8000
CC(C)COc1cccc(C2(c3ccc(OC(F)F)cc3)N=C(N)c3ncccc32)c1 (stereo not drawn) [Example 18, 5-(4-(Difluoromethoxy)phenyl)-5-(3-isobutoxyphenyl)-5H-pyrrolo[3,4-b]pyridin-7-amine] | 150
CC(C)COc1cccc(C2(c3ccncc3)N=C(N)c3ncccc32)c1 (stereo not drawn) [Example 1, 5-(3-Isobutoxyphenyl)-5-(pyridin-4-yl)-5H-pyrrolo[3,4-b]pyridin-7-amine] | 640
CC(C)COc1cccc(C2(c3ccc(OC(F)F)nc3)N=C(N)c3ncccc32)c1 (stereo not drawn) [Example 17, acetate] | 1300

Reference: patent US20100125087A1, “NEW COMPOUNDS 575” (AstraZeneca AB, priority 2008, published 2010)
